Test results from patent US11649228B2, “Zinc indicators for cellular imaging” (The Board of Regents of the University of Texas System, priority 2018, dated 2023).
Read-outs that look alike come from different tables or passages of the source. Each block holds one compound with its values, some of them ahead of it.

Columns and labels:
[1] = Table 2, previously reported sensors, cited from earlier work; for Kd: read-out: Kd(Zn^2+)
[2] = Photochemical characterization of ZIGIRs in vitro (absorption, emission, quantum yield); format: physicochemical; conditions: for fluorescence quantum yield: Zn^2+-bound state; for ε (extinction coefficient): in M-1·cm-1 (unit assumed); for ϕfl × ε (fluorescence brightness): in M^-1 cm^-1 (unit assumed)
Description: (§1) UV-Vis spectra were recorded in a 1-cm path quartz cell on a Shimadzu 2401 PC spectrometer. Fluorescence excitation and emission spectra were recorded on a Fluorolog 3 spectrometer (Jobin-Yvon Horiba, Edison, N.J.). Zinc titration was performed by adding ZIGIRs (0.5 μM final concentration) to buffered Zn^2+ solutions containing 100 mM HEPES (pH 7.4). Nitrilotriacetic acid (NTA, 10 mM) and varying concentrations of ZnSO4 (0-9 mM) were mixed to reach free Zn^2+ concentrations between 0.1 nM and 40 nM (Li et al., 2011). Zn^2+ concentrations above 40 nM were controlled by iminodiacetate (IDA, 10 mM) and varying amounts of ZnSO4 (0-9.7 mM) in 100 mM HEPES (pH 7.4; Sasaki et al., 2011). To determine Zn^2+ binding dissociation constants (Kd(Zn^2+)), the Zn^2+ titration data were fitted to the least square exponential equation (Prism 7). Fluorescence quantum yields of ZIGIRs at pH 7.5 were determined using rhodamine 6G as the reference (Φfl=0.94 in MeOH; Magde et al., 2002). An example in shown FIGS. 11A0B. To examine the pH sensitivity of ZIGIRs, the fluorescence emission spectra was recorded from pH 3-9.4 in either nominally Zn^2+-free solutions containing 5 mM iminodiacetate or in 25 μM ZnSO4 solutions. The pH was controlled with 10 mM pH buffers including chloroacetic acid (pH 3.1), acetate (pH 4.1 and 5.0), 2-morpholinoethanesulfonic acid (MES, pH 6.14), HEPES (pH 7.5) and N-cyclohexyl-2-aminoethanesulfonic acid (CHES, pH 9.4).

[3] = Zn^2+ titration of ZIGIRs by fluorescence emission (Hill plot); format: binding
Description: as §1

[4] = pH sensitivity of ZIGIR fluorescence; format: physicochemical; conditions: same Zn^2+ level
Description: as §1, with “The pH was controlled with 10 mM pH buffers including chloroacetic acid (pH 3.1), acetate (pH 4.1 and 5.0), 2-morpholinoethanesulfonic acid (MES, pH 6.14), HEPES (pH 7.5) and N-cyclohexyl-2-aminoethanesulfonic acid (CHES, pH 9.4).” left out

[5] = Metal ion selectivity of fluorescence response; format: physicochemical; conditions: 1 μM sensor, 10 μM TPEN; against Na^+, K^+, Ca^2+, Mg^2+, Fe^2+, Ni^2+, Co^2+, Cu^2+, Mn^2+
Description: To study the metal selectivity, the fluorescence of ZIGIR-1 (1 μM) or ZIGIR-2 (1 μM) was measured in the presence of 10 μM TPEN and an excess of metal ion including 1 mM KCl, 1 mM NaCl, 1 mM CaSO4, 1 mM MgSO4, 15 μM MnSO4, 15 μM FeSO4, 15 μM NiSO4, 15 μM CoCl2, 15 μM CuSO4, 15 μM CdSO4 or 15 μM ZnSO4. The emission intensity was normalized to that of 15 μM ZnSO4 (100%).

Compound: COc1cc(O)c(-c2nc3c(CNCc4ccccn4)cccc3o2)cc1OC [ZINbo-5]
Kd [1]: 2.2 nM

Compound: Cc1cc2c(c(CN(Cc3ccccn3)Cc3cnccn3)c1)OC1(CC2)C(C)c2ccccc2N1C (centres unmarked) [SpiroZin2]
Zn^2+ response (fold change) [1]: 8×
Kd [1]: 3.6 nM

absorption maximum [2]: around 555 nm
emission maximum [2]: ~580 nm
fluorescence quantum yield [2]: 18%
Compound: CCN(CC)c1ccc2c(-c3ccc(NCCN(CCc4ccccn4)Cc4ccccn4)cc3C(=O)[O-])c3ccc(=[N+](CC)CC)cc-3oc2c1 [ZIGIR-3]

Compound: COc1ccc(N(CC(=O)O)CC(=O)O)c(OCCOc2cc(-c3c4cc(F)c(=O)cc-4oc4cc(O)c(F)cc34)ccc2NCC(=O)O)c1 [FluoZin-3]
Zn^2+ response (fold change) [1]: >100×
Kd [1]: 15 nM

fluorescence enhancement upon Zn^2+ binding [3]: 50 fold
Kd ([3]; 100 mM HEPES pH 7.4): 290 nM
absorption maximum [2]: ~520 nm
bathochromic shift in absorption maximum from Zn^2+-free to Zn^2+-bound state [2]: 4 nm
λabd^max ([2]; Zn^2+ bound): 521 nm
λem^max ([2]; Zn^2+ bound): 543 nm
ϕfl (fluorescence quantum yield) ([2]; Zn^2+ bound): 0.30
ε (extinction coefficient) ([2]; Zn^2+ bound): 112,000
ϕfl × ε (fluorescence brightness) ([2]; Zn^2+ bound): 33,600
λabd^max ([2]; Zn^2+ free): 517 nm
λem^max ([2]; Zn^2+ free): 547 nm
ϕfl (fluorescence quantum yield) ([2]; Zn^2+ free): 0.008
ε (extinction coefficient) ([2]; Zn^2+ free): 85,200
ϕfl × ε (fluorescence brightness) ([2]; Zn^2+ free): 682
fluorescence quantum yield [2]: 30%
fluorescence signal at pH 7.5 versus pH 5.0 [4]: essentially the same fluorescence signal
Compound: CN=c1ccc2c(-c3ccc(NCCN(CCc4ccccn4)Cc4ccccn4)cc3C(=O)O)c3ccc(NC)cc3oc-2c1 [ZIGIR-1]
FC (fold change in fluorescence brightness ϕfl×ε from Zn^2+-free to Zn^2+-bound state) [3]: 50
selectivity of fluorescence response for Zn^2+ [5]: selective for Zn^2+
